Results as given in US20220401329A1, “ARTIFICIAL MELANIN NANOPARTICLES AND PRECURSOR MOLECULES AS HAIR DYES” (Northwestern University, priority 2019, published 2022).
Marks after values point to notes of the source that are not given here.

Legend:
[1] = Solubility of monomers in water; assay type: physicochemical
[2] = test system: Agaricus bisporus tyrosinase (EC 1.14.18.1); assay: Monomer consumption in tyrosinase-mediated oxidation, by RP-HPLC; assay type: biochemical; conditions: 84 nM tyrosinase; for monomer consumption (%) after 2 h reaction: 0.5 mg/mL monomer in water
Procedure: The use of chemoenzymatic oxidative polymerization to produce multifunctional hair coatings has two main advantages. First, it is performed at neutral pH, avoiding the need for basic additives such as NH4OH. Second, it allows the use of substrates other than DA, such as phenolamines and amino acids. Mushroom tyrosinase has recently been used to promote polydopamine-based film deposition^40 and nanoparticles formation^41 starting from dopamine as well as natural phenolamines. […] As previously reported,^40 a 6 h reaction time was necessary to obtain effective darkening of the reaction solutions, performed either in water or Dulbecco's phosphate-buffered saline (DPBS) buffer (FIGS. 23A and 29). Across all tested monomers (L-Tyr, TA, DA), color darkening was associated with an initial increase, then decrease in UV-Vis absorption at 310 nm and 475 nm (FIGS. 23B and 30A-30D). A decrease in these signals, deriving from quinone and cyclic amine species respectively,^40 after the 6 h reaction is indicative of successful polymerization and deposition.^40 We next performed these reactions at 35° C. and at neutral pH, optimal reaction parameters for mushroom tyrosinase.^42 This led to a faster process with solutions turning brown/black several minutes after reaction initiation (FIG. 23A). […] This was confirmed by the rapid disappearance of the peak at 310 nm and 480 nm, as monitored by UV-Vis (FIGS. 23B and 30A-30D). […] (FIGS. 23C and 31A-31B and Table 2). At five-fold higher concentration of 420 nM (50 U/mL) we observed almost complete monomer consumption (FIG. 23D). Monitoring Monomer Consumption via RP-HPLC studies. Monomer consumption after a 2 h reaction was determined by RP-HPLC. Reactions were performed either at rt or at 35° C. and using either 84 nM or […] (five fold) tyrosinase.

SMILES | solubility [1] | substrate for mushroom tyrosinase ([2]; 0.5 mg/mL, 2 hours at 35° C. (FIG. 33A)) | monomer consumption (%) after 2 h reaction ([2]; 35° C.) | monomer consumption (%) after 2 h reaction ([2]; rt)
COC(=O)[C@@H](N)Cc1ccc(O)cc1 [L-Tyr-OMe, L-tyrosine methyl ester] | ≥ 26 mM | good substrate | – | –
N[C@@H](Cc1ccc(O)cc1)C(=O)O [L-Tyr, L-tyrosine] | – | – | 86% | 55%*
NCCc1ccc(O)cc1 [TA, tyramine] | – | – | 86% | 76%
NCCc1ccc(O)c(O)c1 [DA, dopamine] | – | – | 91% | 65%
